Assay results: patent US11834496B2, “Composition of a drug carrier, pharmaceutical composition thereof, preparation method and use method thereof” (EOS BIOMATERIALS INC., priority 2020, dated 2023)

Experiment: Drug release rate test of pharmaceutical composition (dialysis bag in PBS, HPLC)
Assay type: physicochemical
Conditions: 37° C.; for drug release rate: gentamicin 50 mg, 200 ml PBS
Method: In this test, a total of 3 ml solutions of the first and second mixtures (the weight ratio of sodium alginate:tricalcium phosphate:methylcellulose:sodium hyaluronate:calcium chloride was 36:36:15:80:20) and 50 mg of gentamicin were mixed to prepare a pharmaceutical composition containing gentamicin to be an experimental group. Then, the pharmaceutical composition containing gentamicin was placed in a dialysis bag. At the same time, 50 mg of gentamicin was dissolved in 3 ml of water as a control group.
Next, two 500 ml beaker were respectively added with 200 ml of phosphate buffered saline (PBS) solution. The prepared solutions of the experimental group and control group were respectively placed in dialysis bags, which were then placed in the PBS solutions. After that, the beakers, containing the dialysis bag and the PBS solution, were slightly shaken at 37° C. to allow the release of the drug from the dialysis bag to the PBS solution. In the drug release period, the PBS solution of the experimental and control groups are sampled at 15 minutes, 30 minutes, 45 minutes, 60 minutes, 75 minutes, 90 minutes, 105 minutes, 120 minutes, 150 minutes, 180 minutes, 1 day, 2 days, 3 days, 4 days, 5 days, 6 days, and 7 days, from the time start shaking. The sampled volume of the PBS solutions in beakers was 1 mL, and 1 mL of fresh PBS solution was added back to the sampled beakers. The concentrations of the gentamicin released in the PBS solution from the dialysis bag were analyzed by high performance liquid chromatography (HPLC).

In the case of gentamicin, the “cumulative release amount of the gentamicin released in the PBS solution” value (PBS, in less than 30 hours) is reported as roughly 100%, the drug release rate (within 180 hours, relative to experimental group) is reported as “much faster” and the drug release rate (within the first 3 hours) is reported as “much faster”.
